Experimental data from PubChem BioAssay (NCI).
“And” between values parts separate entries of the source, which are not always exact repeats. Equal entries are not always repeated.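 The compound was tested at five concentrations on cells cultured in 96-well plates, with a 48-hour exposure period. Abbreviation: GI50, concentration required for 50% inhibition of growth. The concentration for full growth arrest is given as TGI.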

Assays:
Experiment in all cases: growth of human tumour cells (NCI), 48 h
COLO 205 colon = system: COLO 205 colon
NCI-H23 lung = system: NCI-H23 lung
RPMI-8226 leukemia = system: RPMI-8226 leukemia
SNB-78 CNS = system: SNB-78 CNS
UO-31 renal = system: UO-31 renal
M14 melanoma = system: M14 melanoma
DMS 273 small cell lung = system: DMS 273 small cell lung
CCRF-CEM leukemia = system: CCRF-CEM leukemia
XF 498 CNS = system: XF 498 CNS
T-47D breast = system: T-47D breast

## CCC(=O)c1c(NOC2OCC(OC(C)=O)C(OC(C)=O)C2OC(C)=O)nc(OC)n(C)c1=O (configuration not stated)
COLO 205 colon
  TGI: > 100 µM
NCI-H23 lung
  TGI: > 100 µM
RPMI-8226 leukemia
  TGI: > 100 µM
SNB-78 CNS
  TGI: > 100 µM
UO-31 renal
  TGI: > 100 µM
M14 melanoma
  TGI: > 100 µM
DMS 273 small cell lung
  TGI: > 100 µM
CCRF-CEM leukemia
  TGI: > 100 µM
XF 498 CNS
  TGI: > 100 µM

## Cc1nn[n-]n1.N.N.N.N.N.[Cl-].[Co+3]
COLO 205 colon
  GI50: > 100 µM
  TGI: > 100 µM
NCI-H23 lung
  GI50: > 100 µM
  TGI: > 100 µM
RPMI-8226 leukemia
  GI50: > 100 µM
  TGI: > 100 µM
SNB-78 CNS
  GI50: > 100 µM
  TGI: > 100 µM
UO-31 renal
  GI50: > 100 µM
  TGI: > 100 µM
M14 melanoma
  GI50: > 100 µM
  TGI: > 100 µM
DMS 273 small cell lung
  GI50: > 100 µM
  TGI: > 100 µM
CCRF-CEM leukemia
  GI50: > 100 µM
  TGI: > 100 µM

## C#Cc1cccc(N2C(=O)c3c(c(-c4ccccc4)c(-c4ccc(Cc5ccc(-c6c(-c7ccccc7)c7c(c(-c8ccccc8)c6-c6ccccc6)C(=O)N(c6cccc(C#C)c6)C7=O)cc5)cc4)c(-c4ccccc4)c3-c3ccccc3)C2=O)c1
COLO 205 colon
  TGI: 66.5 µM
NCI-H23 lung
  TGI: > 100 µM
RPMI-8226 leukemia
  TGI: > 100 µM
SNB-78 CNS
  TGI: > 100 µM
UO-31 renal
  TGI: > 100 µM
M14 melanoma
  TGI: 41.5 µM
DMS 273 small cell lung
  TGI: > 100 µM
CCRF-CEM leukemia
  TGI: > 100 µM
XF 498 CNS
  TGI: 72.7 µM

## COc1ccc(N=NC(C(=O)c2ccccc2)C(=O)c2ccccc2)cc1
COLO 205 colon
  TGI: > 100 µM
NCI-H23 lung
  TGI: 65.3 µM
RPMI-8226 leukemia
  TGI: 53.7 µM
UO-31 renal
  TGI: 51.7 µM
M14 melanoma
  TGI: 33.4 µM
DMS 273 small cell lung
  TGI: 56.7 µM
CCRF-CEM leukemia
  TGI: 58.2 µM
XF 498 CNS
  TGI: 71.9 µM

## O=c1/c(=C/c2ccccc2[N+](=O)[O-])sc2nc3ccccc3n12
COLO 205 colon
  TGI: > 46.4 µM
NCI-H23 lung
  TGI: > 46.4 µM
RPMI-8226 leukemia
  TGI: 20.1 µM
SNB-78 CNS
  TGI: > 46.4 µM
UO-31 renal
  TGI: > 46.4 µM
M14 melanoma
  TGI: > 46.4 µM
DMS 273 small cell lung
  TGI: > 46.4 µM
CCRF-CEM leukemia
  TGI: 22.7 µM
XF 498 CNS
  TGI: > 59.3 µM

## O=C(CCC(=O)Nc1ccc(Cl)c(Cl)c1)CC(=O)c1ccc(Br)cc1
COLO 205 colon
  TGI: > 100 µM
NCI-H23 lung
  TGI: > 100 µM
RPMI-8226 leukemia
  TGI: > 100 µM
SNB-78 CNS
  TGI: > 100 µM
UO-31 renal
  TGI: > 100 µM
M14 melanoma
  TGI: > 100 µM
CCRF-CEM leukemia
  TGI: > 100 µM
XF 498 CNS
  TGI: > 100 µM

## CCc1ccc(NC(=O)NC(=O)c2ccccc2[N+](=O)[O-])cc1Oc1ncc(Cl)cn1
COLO 205 colon
  TGI: 0.106 µM
NCI-H23 lung
  TGI: > 100 µM
RPMI-8226 leukemia
  TGI: > 4.64 µM
SNB-78 CNS
  TGI: > 100 µM
UO-31 renal
  TGI: 45.5 µM
M14 melanoma
  TGI: > 100 µM
CCRF-CEM leukemia
  TGI: > 100 µM

## COc1ccc(NC(=O)/C(=C/c2ccccc2)C(C)=O)cc1
COLO 205 colon
  TGI: 35.7 µM
RPMI-8226 leukemia
  TGI: 24.8 µM
SNB-78 CNS
  TGI: 44.8 µM
UO-31 renal
  TGI: 29 µM
M14 melanoma
  TGI: 27.1 µM
DMS 273 small cell lung
  TGI: 30.8 µM
CCRF-CEM leukemia
  TGI: 27.9 µM
XF 498 CNS
  TGI: 30.6 µM

## CCOC(=O)C1=C(Nc2ccc(Cl)cc2Cl)OCC1=O
COLO 205 colon
  TGI: > 100 µM
NCI-H23 lung
  TGI: > 100 µM
RPMI-8226 leukemia
  TGI: > 100 µM
SNB-78 CNS
  TGI: > 100 µM
UO-31 renal
  TGI: > 100 µM
M14 melanoma
  TGI: > 100 µM
DMS 273 small cell lung
  TGI: > 100 µM
XF 498 CNS
  TGI: > 100 µM

## CC1=C[C@H]2c3c([nH]c4ccccc34)C(c3c[nH]c4ccccc34)[C@H]2CC1 (some centres not stated)
COLO 205 colon
  TGI: 13 µM
RPMI-8226 leukemia
  TGI: 12 µM
SNB-78 CNS
  TGI: 13.2 µM
M14 melanoma
  TGI: 19.2 µM
DMS 273 small cell lung
  TGI: 15.8 µM
CCRF-CEM leukemia
  TGI: 10.9 µM

## CC1=CC(=O)CC2(C)CC[C@@H]3C[C@]12OC3(C)C (some centres not stated)
COLO 205 colon
  TGI: > 100 µM
NCI-H23 lung
  TGI: > 100 µM
RPMI-8226 leukemia
  TGI: > 100 µM
SNB-78 CNS
  TGI: > 100 µM
UO-31 renal
  TGI: > 100 µM
M14 melanoma
  TGI: > 100 µM
DMS 273 small cell lung
  TGI: > 100 µM
CCRF-CEM leukemia
  TGI: > 100 µM
XF 498 CNS
  TGI: > 100 µM

## CC1/C=C/[C@@]2(C)CCC(C(C)(C)O)C2C(O)C[C@](C)(O)/C=C/C1 (some centres not stated)
COLO 205 colon
  TGI: > 100 µM
NCI-H23 lung
  TGI: > 100 µM
RPMI-8226 leukemia
  TGI: > 100 µM
SNB-78 CNS
  TGI: > 100 µM
UO-31 renal
  TGI: > 100 µM
M14 melanoma
  TGI: > 100 µM
DMS 273 small cell lung
  TGI: > 100 µM
CCRF-CEM leukemia
  TGI: > 100 µM
XF 498 CNS
  TGI: > 100 µM

## CCC1CC2C(=O)N(c3ccccc3)C(=O)C2c2[nH]c3ccccc3c21 (configuration not stated)
COLO 205 colon
  TGI: 78.5 µM
NCI-H23 lung
  TGI: > 100 µM
RPMI-8226 leukemia
  TGI: > 100 µM
SNB-78 CNS
  TGI: 75.1 µM
UO-31 renal
  TGI: > 100 µM
M14 melanoma
  TGI: > 100 µM
CCRF-CEM leukemia
  TGI: > 100 µM
XF 498 CNS
  TGI: 42 µM

## COC(=O)/C=C(C)/C=C/C1OC(C)OCC1O (configuration not stated)
COLO 205 colon
  TGI: > 100 µM
NCI-H23 lung
  TGI: > 100 µM
RPMI-8226 leukemia
  TGI: > 100 µM
SNB-78 CNS
  TGI: > 100 µM
UO-31 renal
  TGI: > 100 µM
M14 melanoma
  TGI: > 100 µM
DMS 273 small cell lung
  TGI: > 100 µM
CCRF-CEM leukemia
  TGI: > 100 µM

## C=C(CC(NC(=O)c1ccc(C(CC)Cc2cnc3nc(N)nc(N)c3n2)cc1)C(=O)O)C(=O)O (configuration not stated)
COLO 205 colon
  TGI: > 100 µM
NCI-H23 lung
  TGI: > 100 µM
RPMI-8226 leukemia
  TGI: > 100 µM
SNB-78 CNS
  TGI: > 100 µM
UO-31 renal
  GI50: 0.0271 µM
  TGI: > 100 µM
M14 melanoma
  TGI: > 100 µM
DMS 273 small cell lung
  TGI: > 100 µM
CCRF-CEM leukemia
  TGI: > 100 µM

## CCC(O)c1ccc(Br)cc1NC(=O)c1cccc(Cl)c1 (configuration not stated)
T-47D breast
  GI50: 12.7 µM
  TGI: 84.8 µM
COLO 205 colon
  GI50: 18.8 µM
  TGI: 34.6 µM
NCI-H23 lung
  GI50: 22.4 µM
  TGI: 86.6 µM
RPMI-8226 leukemia
  GI50: 11.4 µM
  TGI: 48.3 µM
UO-31 renal
  GI50: 10.8 µM
  TGI: > 100 µM
M14 melanoma
  GI50: 21.3 µM
  TGI: 52.3 µM
CCRF-CEM leukemia
  GI50: 20.5 µM
  TGI: 58.9 µM

## O=C1c2ccccc2-[n+]2ccc3c([nH]c4ccccc43)c21
T-47D breast
  TGI: 3.52 µM
COLO 205 colon
  TGI: 0.498 µM
NCI-H23 lung
  TGI: 2.76 µM
RPMI-8226 leukemia
  TGI: 0.468 µM
UO-31 renal
  TGI: 3.28 µM
M14 melanoma
  TGI: 0.365 µM
CCRF-CEM leukemia
  TGI: 2.27 µM

## CC(C)c1c(-c2ccccc2)nc2c(C#N)c[nH]n2c1=O
T-47D breast
  GI50: 25.2 µM
  TGI: 87.6 µM
COLO 205 colon
  GI50: 25.1 µM
  TGI: 75.2 µM
NCI-H23 lung
  GI50: 26.1 µM
  TGI: > 79.6 µM
RPMI-8226 leukemia
  GI50: 24.2 µM
  TGI: 67.7 µM
UO-31 renal
  GI50: 26.5 µM
  TGI: 98.6 µM
M14 melanoma
  GI50: 30.6 µM
  TGI: > 100 µM
CCRF-CEM leukemia
  GI50: 28.5 µM
  TGI: > 100 µM

## CC(C)(C)c1cc(C(O)(C(F)(F)F)C(F)(F)F)c2c(c1)C(C(F)(F)F)(C(F)(F)F)OC(C)(C(C)(C)C)N2 (configuration not stated)
COLO 205 colon
  TGI: 4.02 µM
NCI-H23 lung
  TGI: 7.41 µM
RPMI-8226 leukemia
  TGI: 9.25 µM
SNB-78 CNS
  TGI: 99 µM
UO-31 renal
  TGI: 21 µM
M14 melanoma
  TGI: 13.6 µM
DMS 273 small cell lung
  TGI: 10.8 µM
XF 498 CNS
  TGI: 4.25 µM

## CS(=O)(=O)CCNCc1cc(-c2cc3c(Nc4ccc(OCc5cccc(F)c5)c(Cl)c4)ncnc3s2)cs1
T-47D breast
  GI50: 3 µM
  TGI: > 23.6 µM
COLO 205 colon
  GI50: 9.61 µM
  TGI: > 25 µM
NCI-H23 lung
  GI50: 20.5 µM
  TGI: > 25 µM
RPMI-8226 leukemia
  GI50: 6.95 µM
  TGI: 23.2 µM
UO-31 renal
  GI50: 4.52 µM
  TGI: > 25 µM
M14 melanoma
  GI50: 13.4 µM
  TGI: > 25 µM
CCRF-CEM leukemia
  GI50: 11 µM
  TGI: > 25 µM

## CC(C)c1cnn2c(NCc3ccccc3)cc(NC[C@H]3CCNC[C@@H]3O)nc12
T-47D breast
  GI50: 0.472 µM and 0.898 µM
  TGI: 7.58 µM and 9.5 µM
COLO 205 colon
  GI50: 0.179 µM and 0.21 µM
  TGI: 0.476 µM and 0.749 µM
NCI-H23 lung
  GI50: 0.463 µM
  TGI: 2.98 µM
RPMI-8226 leukemia
  GI50: 0.158 µM and 0.211 µM
  TGI: 1.82 µM and 4.14 µM
UO-31 renal
  GI50: 2 µM and 2.65 µM
  TGI: 11.8 µM and 12 µM
M14 melanoma
  GI50: 0.586 µM and 0.688 µM
  TGI: 2.25 µM and 2.2 µM
CCRF-CEM leukemia
  GI50: 0.31 µM and 0.672 µM
  TGI: 6.01 µM and 14.9 µM
